Results reported in ChEMBL document CHEMBL4725395, “Lipoic acid modified antimicrobial peptide with enhanced antimicrobial properties” (Bioorg Med Chem, 2020).
Converted amounts (≈) assume the structure as drawn. The source made the active and inactive calls. The rule behind the calls is not given here. Residues, ends and D or L forms follow the SMILES beside them. ξ: configuration not given here. *: point of attachment. Lipoyl(6ξ) = O=C(CCCCC1CCSS1)*

Legend:
Staphylococcus aureus [1] = test: Antimicrobial activity against methicillin-resistant Staphylococcus aureus ATCC 43300 assessed as inhibition of visible growth incubated for 24 hrs; assay type: functional
[2] = system: Staphylococcus epidermidis; test: Antimicrobial activity against Staphylococcus epidermidis ATCC 14990 by measuring turbidity after 16 hrs; assay type: functional
Pseudomonas aeruginosa [3] = test: Antimicrobial activity against Pseudomonas aeruginosa ATCC 27853 by measuring turbidity after 16 hrs; assay type: functional
Escherichia coli [4] = test: Antimicrobial activity against Escherichia coli ATCC 25922 assessed as inhibition of visible growth incubated for 24 hrs; assay type: functional
Staphylococcus aureus [5] = test: Antibiofilm activity against methicillin resistant Staphylococcus aureus ATCC 43300 assessed as inhibition of biofilm formation at 64 ug/ml after 48 hrs by crystal violet staining based assay relative to control; assay type: functional; design: scale not given: the % may be the effect or the level left; conditions: dose 64 µg/ml
Cell membrane [6] = test: Induction of cell membrane damage in methicillin-resistant Staphylococcus aureus ATCC 43300 assessed as leakage of cellular components at 16 ug/ml after 30 mins by transmission electron microscopy; assay type: subcellular; conditions: dose 16.0 µg/ml
[7] = Cytotoxicity against mouse L929 cells assessed as cell viability at 32 ug/ml after 24 hrs by MTT assay relative to control; assay type: cell-based; conditions: at 32 µg/mL, read-out: Activity
Staphylococcus aureus [8] = test: Antibiofilm activity against methicillin-resistant Staphylococcus aureus ATCC 43300 assessed as dead bacteria at 64 ug/ml incubated for 5 hrs by live/dead staining based confocal laser scanning microscopy; assay type: functional, organism-based; conditions: dose 64.0 µg/ml
Staphylococcus aureus [9] = test: Antibiofilm activity against 48 hrs pre-formed biofilm of Staphylococcus aureus ATCC 29213 assessed as reduction in biofilm viability at 64 ug/ml after 5 hrs relative to control; assay type: functional; conditions: dose 64 µg/ml
Staphylococcus aureus [10] = test: Antimicrobial activity against Staphylococcus aureus ATCC 29213 by measuring turbidity at 540 nm OD after 16 hrs; assay type: functional
Staphylococcus aureus [11] = test: Antibiofilm activity against 48 hrs preformed biofilm of methicillin resistant Staphylococcus aureus ATCC 43300 assessed as reduction in biofilm viability at 128 ug/ml after 5 hrs relative to control; assay type: functional; conditions: dose 128 µg/ml
Staphylococcus aureus [12] = test: (§1) Bactericidal activity against planktonic phase of Staphylococcus aureus ATCC 29213 assessed as log reduction in bacterial colony forming units at 2 ug/ml incubated for 15 mins followed by plating on agar plate and measured after overnight incubation by time-kill kinetic assay relative to control; assay type: functional; design: scale not given: the % may be the effect or the level left; conditions: dose 2 µg/ml, 0.25 h
[13] = Cytotoxicity against mouse L929 cells assessed as cell viability at 128 ug/ml after 24 hrs by MTT assay relative to control; assay type: cell-based; conditions: at 128 µg/mL, read-out: Activity
Escherichia coli [14] = test: Antimicrobial activity against Escherichia coli ATCC 25922 by measuring turbidity after 16 hrs; assay type: functional
Staphylococcus aureus [15] = test: Antimicrobial activity against Staphylococcus aureus ATCC 29213 assessed as inhibition of visible growth incubated for 24 hrs; assay type: functional
Cell membrane [16] = test: Induction of outer membrane permeabilization in Escherichia coli ATCC 25922 assessed as increase in fluorescence intensity at 4 ug/ml after 100 sec by NPN-dye based assay; assay type: subcellular; conditions: dose 4.0 µg/ml
[17] = Cytotoxicity against mouse L929 cells assessed as cell viability at 64 ug/ml after 24 hrs by MTT assay relative to control; assay type: cell-based; conditions: at 64 µg/mL, read-out: Activity
[18] = Hemolytic activity against Erythrocyte (unknown origin) at 16 ug/ml measured after 4 hrs by microplate reader analysis relative to control; assay type: ADME, cell-based; conditions: human, erythrocytes, at 16 µg/mL, read-out: Activity
Staphylococcus aureus [19] = test: as §1, with “of methicillin-resistant” for “of”, “43300” for “29213”, “8” for “2”; assay type: functional; design: scale not given: the % may be the effect or the level left; conditions: dose 8 µg/ml, 0.25 h
Cell membrane [20] = test: Induction of cytoplasmic membrane depolarization in Kcl - treated Escherichia coli DC2 assessed as increase in fluorescence intensity for a period of 600 sec by diSC3-5 dye based fluorescence microplate reader assay
Cell membrane [21] = test: Induction of cell membrane damage in Escherichia coli ATCC 25922 assessed as leakage of cellular components at 16 ug/ml after 30 mins by transmission electron microscopy; assay type: subcellular; conditions: dose 16.0 µg/ml
[22] = system: Staphylococcus epidermidis; test: Antimicrobial activity against Staphylococcus epidermidis ATCC 14990 assessed as inhibition of visible growth incubated for 24 hrs; assay type: functional
Staphylococcus aureus [23] = test: Antibiofilm activity against Staphylococcus aureus ATCC 29213 assessed as inhibition of biofilm formation at 64 ug/ml after 48 hrs by crystal violet staining based assay relative to control; assay type: functional; design: scale not given: the % may be the effect or the level left; conditions: dose 64 µg/ml
Staphylococcus aureus [24] = test: Antibiofilm activity against Staphylococcus aureus ATCC 29213 assessed as dead bacteria at 64 ug/ml incubated for 5 hrs by live/dead staining based confocal laser scanning microscopy; assay type: functional, organism-based; conditions: dose 64.0 µg/ml
[25] = Hemolytic activity against Erythrocyte (unknown origin) at 4 ug/ml measured after 4 hrs by microplate reader analysis relative to control; assay type: ADME, cell-based; conditions: human, erythrocytes, at 4 µg/mL, read-out: Activity
[26] = Cytotoxicity against mouse L929 cells assessed as cell viability at 8 or 16 ug/ml after 24 hrs by MTT assay relative to control; assay type: cell-based; conditions: dose 8-16 µg/ml, read-out: Activity
Pseudomonas aeruginosa [27] = test: Antimicrobial activity against Pseudomonas aeruginosa ATCC 27853 assessed as inhibition of visible growth incubated for 24 hrs; assay type: functional
Staphylococcus aureus [28] = test: Antimicrobial activity against methicillin-resistant Staphylococcus aureus ATCC 43300 by measuring turbidity after 16 hrs; assay type: functional

In the case of `CC[C@H](C)[C@H](NC(=O)[C@H](CCCNC(=N)N)NC(=O)CCCCC1CCSS1)C(=O)N[C@@H](Cc1c[nH]c2ccccc12)C(=O)N[C@H](C(=O)N[C@H](C(=O)N[C@@H](Cc1c[nH]c2ccccc12)C(=O)N[C@@H](CCCNC(=N)N)C(=O)N[C@@H](CCCNC(=N)N)C(N)=O)[C@@H](C)CC)C(C)C` (some centres not stated) ({Lipoyl(6ξ)}-RIWVIWRR-NH2), the MBC (Staphylococcus aureus [1]) is reported as 8 µg/mL (≈ 5.83 µM), the MIC [2] is reported as 8 µg/mL (≈ 5.83 µM) and the MIC (Pseudomonas aeruginosa [3]) is reported as 8 µg/mL (≈ 5.83 µM). The MBC (Escherichia coli [4]) was 8 µg/mL (≈ 5.83 µM), the Activity (Staphylococcus aureus [5]) was 25.6% and the Activity (Cell membrane [6]) was “Active”. For the same compound, the viability at 24 h, 32 ug/ml [7] was 89.4%, the Activity (Staphylococcus aureus [8]) was “Active” and the Activity (Staphylococcus aureus [9]) was 60%. It also gave an MIC (Staphylococcus aureus [10]) of 1 µg/mL (≈ 0.729 µM), an Activity (Staphylococcus aureus [11]) of 36.4% and an Activity (Staphylococcus aureus [12]) of 99%. The viability at 24 h, 128 ug/ml [13] was 80.1%, the MIC (Escherichia coli [14]) was 8 µg/mL (≈ 5.83 µM) and the MBC (Staphylococcus aureus [15]) was 2 µg/mL (≈ 1.46 µM). The Activity (Cell membrane [16]) was “Active”, the viability at 24 h, 64 ug/ml [17] was 84.9% and the hemolysis at 4 h, 16 ug/ml [18] was 4.58%. For the same compound, the Activity (Staphylococcus aureus [19]) was 99%, the Activity (Cell membrane [20]) was “Dose-dependent effect” and the Activity (Cell membrane [21]) was “Active”. For the same compound, the MBC [22] was 8 µg/mL (≈ 5.83 µM), the Activity (Staphylococcus aureus [23]) was 12% and the Activity (Staphylococcus aureus [24]) was “Active”. It also gave a hemolysis at 4 h, 4 ug/ml [25] of 0.97%, a viability at 24 h [26] of 100% and an MBC (Pseudomonas aeruginosa [27]) of 8 µg/mL (≈ 5.83 µM). The MIC (Staphylococcus aureus [28]) was 4 µg/mL (≈ 2.92 µM).
H-RIWVIWRR-NH2 gave an MBC (Staphylococcus aureus [1]) of 16 µg/mL, an MIC [2] of 4 µg/mL and an MIC (Pseudomonas aeruginosa [3]) of 4 µg/mL. For the same compound, the MBC (Escherichia coli [4]) was 4 µg/mL, the Activity (Cell membrane [6]) was “Active” and the Activity (Staphylococcus aureus [9]) was 45%. The MIC (Staphylococcus aureus [10]) was 2 µg/mL, the Activity (Staphylococcus aureus [11]) was 40.2% and the viability at 24 h, 128 ug/ml [13] was 85.7%. It also gave an MIC (Escherichia coli [14]) of 4 µg/mL, an MBC (Staphylococcus aureus [15]) of 4 µg/mL and a hemolysis at 4 h, 16 ug/ml [18] of 3.47%. The Activity (Cell membrane [20]) was “Dose-dependent effect”, the Activity (Cell membrane [21]) was “Active” and the MBC [22] was 4 µg/mL. The hemolysis at 4 h, 4 ug/ml [25] was 1.21%, the viability at 24 h [26] was 100% and the MBC (Pseudomonas aeruginosa [27]) was 4 µg/mL. The MIC (Staphylococcus aureus [28]) was 8 µg/mL.
